Results published in patent US8304446B2, “Compounds” (Glaxo Group Limited, priority 2009, dated 2012).
Structures can show the parent of a compound that is named as a salt.

The molecules below were run on CD4+ CCR4+ T cells (assay: Chemokine stimulated increases in cellular F-actin content). Conditions: Homo sapiens, T-cell, 0.5 h; PBMC from normal volunteers; antagonist 30 min at 37° C. before agonist for 15 sec; F-actin content by flow cytometry; read-out: pA2 (converted).
Type: cell-based
Method: Chemokine Stimulated Increases in Cellular F-Actin Content
Blood was taken from normal volunteers who had taken no medication within the previous ten days and mixed with 1/9 of the volume of 3.8% tri-sodium citrate solution. Chemokine-induced increases in the F-actin content of CD4+ CCR4+ T cells were measured by a modification of the method of Pilette et al. (Eur. Respir. J; 23: 876-884, 2004). Peripheral blood mononuclear cells (PBMC) were isolated by dextran sedimentation followed by Percoll density gradient centrifugation. The PBMCs were incubated with FITC-conjugated anti-human CD4 and PE-conjugated anti-CCR4 antibodies or appropriate isotype controls for 15 min. The cell suspensions were then centrifuged at 400 g for 10 min and the pellets resuspended in assay buffer (phenol red-free RPMI 1640 medium containing 10 mM HEPES and 0.1% bovine serum albumin) at 10^7/mL. The resulting cell suspension was incubated with antagonist or vehicle (0.1% DMSO) for 30 min at 37° C. before stimulation with the agonist for 15 sec. The assay was terminated by addition of 3% formaldehyde. The fixed cells were washed twice with PBS (centrifuging at 1000 g for 5 min to recover the cells) and incubated at room temperature with Alexa fluor-647 phalloidin (0.075 U/mL) in the presence of lyso-phosphatidylcholine (93.75 μg/ml) for 20 min to stain F-actin. The cells were washed once more with PBS and the relative F-actin content of the cells was measured flow cytometrically. The mean fluorescence intensity of 1000 CD4^+ CCR4^+ cells per sample was determined and expressed as a fraction of the mean intensity of the CD4^+ CCR4^− cells in that sample.
Work on `CC[C@H](C)[C@@H](N)C(=O)NCc1cccc(Cn2nc(NS(=O)(=O)c3ccc(Cl)s3)c3c(OC)cccc32)c1` [Example 46, N^1-[(3-{[3-{[(5-Chloro-2-thienyl)sulfonyl]amino}-4-(methyloxy)-1H-indazol-1-yl]methyl}phenyl)methyl]-D-alloisoleucinamide] yielded a Kb of no more than 126 nM. `COc1cccc2c1c(NS(=O)(=O)c1ccc(Cl)s1)nn2Cc1cccc(CNC(=O)[C@@H](N)Cc2ccccc2)c1` [Example 47, N-[(3-{[3-{[(5-Chloro-2-thienyl)sulfonyl]amino}-4-(methyloxy)-1H-indazol-1-yl]methyl}phenyl)methyl]-L-phenylalaninamide] showed a Kb of no more than 126 nM. With `COc1cccc2c1c(NS(=O)(=O)c1ccc(Cl)s1)nn2Cc1cccc(CNC(=O)[C@@H](N)CCCCN)c1` [Example 49, N^1-[(3-{[3-{[(5-Chloro-2-thienyl)sulfonyl]amino}-4-(methyloxy)-1H-indazol-1-yl]methyl}phenyl)methyl]-L-lysinamide] the Kb was no more than 126 nM. Molecule `COc1cccc2c1c(NS(=O)(=O)c1ccc(Cl)s1)nn2Cc1cccc(CNC(=O)[C@H]2CCN2)c1` [Example 50, (2R)—N-[(3-{[3-{[(5-Chloro-2-thienyl)sulfonyl]amino}-4-(methyloxy)-1H-indazol-1-yl]methyl}phenyl)methyl]-2-azetidinecarboxamide trifluoroacetate] has a Kb of no more than 126 nM. `COc1ccc(Cn2nc(NS(=O)(=O)c3ccc(Cl)s3)c3c(OC)cccc32)cc1OC` [Example 53, N-[1-{[3,4-Bis(methyloxy)phenyl]methyl}-4-(methyloxy)-1H-indazol-3-yl]-5-chloro-2-thiophenesulfonamide] was tested, and the Kb was no more than 126 nM. `COC[C@H](N)C(=O)NCc1cccc(Cn2nc(NS(=O)(=O)c3ccc(Cl)s3)c3c(OC)cccc32)c1` [Example 54, N^1-[(3-{[3-{[(5-Chloro-2-thienyl)sulfonyl]amino}-4-(methyloxy)-1H-indazol-1-yl]methyl}phenyl)methyl]-O-methylserinamide trifluoroacetate] was tested, and the Kb was no more than 126 nM. `CNC(C)(C)C(=O)NCc1cccc(Cn2nc(NS(=O)(=O)c3ccc(Cl)s3)c3c(OC)cccc32)c1` [Example 56, N1-[(3-{[3-{[(5-Chloro-2-thienyl)sulfonyl]amino}-4-(methyloxy)-1H-indazol-1-yl]methyl}phenyl)methyl]-N2,2-dimethylalaninamide formate] gave a Kb of no more than 126 nM. Molecule `COc1cccc2c1c(NS(=O)(=O)c1ccc(Cl)s1)nn2Cc1cccc(CNS(C)(=O)=O)c1` [Example 58, 5-Chloro-N-{4-(methyloxy)-1-[(3-{[(methylsulfonyl)amino]methyl}phenyl)methyl]-1H-indazol-3-yl}-2-thiophenesulfonamide] has a Kb of no more than 126 nM. For `COc1cccc2c1c(NS(=O)(=O)c1ccc(Cl)s1)nn2Cc1cccc(CNC(N)=O)c1` [Example 59, N-[1-[(3-{[(Aminocarbonyl)amino]methyl}phenyl)methyl]-4-(methyloxy)-1H-indazol-3-yl]-5-chloro-2-thiophenesulfonamide], the Kb was no more than 126 nM. Molecule `COc1cccc2c1c(NS(=O)(=O)c1ccc(Cl)s1)nn2Cc1cccc(CNC(=O)NC(C)(C)C)c1` [Example 60, 5-Chloro-N-[1-({3-[({[(1,1-dimethylethyl)amino]carbonyl}amino)methyl]phenyl}methyl)-4-(methyloxy)-1H-indazol-3-yl]-2-thiophenesulfonamide] has a Kb of no more than 126 nM. Molecule `COc1cccc2c1c(NS(=O)(=O)c1ccc(Cl)s1)nn2Cc1cccc(CNC(=O)NC(C)C)c1` [Example 61, 5-Chloro-N-[1-({3-[({[(1-methylethyl)amino]carbonyl}amino)methyl]phenyl}methyl)-4-(methyloxy)-1H-indazol-3-yl]-2-thiophenesulfonamide] has a Kb of no more than 126 nM. Molecule `COc1cccc2c1c(NS(=O)(=O)c1ccc(Cl)s1)nn2Cc1ccc(S(N)(=O)=O)cc1` [Example 62, N-[1-{[4-(Aminosulfonyl)phenyl]methyl}-4-(methyloxy)-1H-indazol-3-yl]-5-chloro-2-thiophenesulfonamide] has a Kb of no more than 126 nM. In the case of `CNC(=O)Cc1cccc(Cn2nc(NS(=O)(=O)c3ccc(Cl)s3)c3c(OC)cccc32)c1` [Example 63, 2-(3-{[3-{[(5-Chloro-2-thienyl)sulfonyl]amino}-4-(methyloxy)-1H-indazol-1-yl]methyl}phenyl)-N-methylacetamide], the Kb is reported as no more than 126 nM. `COc1cccc2c1c(NS(=O)(=O)c1ccc(Cl)s1)nn2Cc1cccc(C(N)=O)c1` [Example 64, 3-{[3-{[(5-Chloro-2-thienyl)sulfonyl]amino}-4-(methyloxy)-1H-indazol-1-yl]methyl}benzamide] showed a Kb of no more than 126 nM. In the case of `COc1cccc2c1c(NS(=O)(=O)c1ccc(Cl)s1)nn2Cc1cccc(C(=O)NCCN(C)C)c1` [Example 65, 3-{[3-{[(5-Chloro-2-thienyl)sulfonyl]amino}-4-(methyloxy)-1H-indazol-1-yl]methyl}-N-[2-(dimethylamino)ethyl]benzamide], the Kb is reported as no more than 126 nM. `COc1cccc2c1c(NS(=O)(=O)c1ccc(C)s1)nn2Cc1cccc(C(N)=O)c1` [Example 66, 3-[(4-(Methyloxy)-3-{[(5-methyl-2-thienyl)sulfonyl]amino}-1H-indazol-1-yl)methyl]benzamide] showed a Kb of no more than 126 nM. For `COc1cccc2c1c(NS(=O)(=O)c1ccc(Br)s1)nn2Cc1cccc(C(N)=O)c1` [Example 67, 3-{[3-{[(5-Bromo-2-thienyl)sulfonyl]amino}-4-(methyloxy)-1H-indazol-1-yl]methyl}benzamide], the Kb was no more than 126 nM. `COc1ccc(F)c2c1c(NS(=O)(=O)c1ccc(Cl)s1)nn2Cc1cccc(C(N)=O)c1` [Example 68, 3-{[3-{[(5-Chloro-2-thienyl)sulfonyl]amino}-7-fluoro-4-(methyloxy)-1H-indazol-1-yl]methyl}benzamide] gave a Kb of no more than 126 nM. `NC(=O)c1cccc(Cn2nc(NS(=O)(=O)c3ccc(Cl)s3)c3c(O)ccc(F)c32)c1` [Example 69, 3-[(3-{[(5-Chloro-2-thienyl)sulfonyl]amino}-7-fluoro-4-hydroxy-1H-indazol-1-yl)methyl]benzamide] was tested, and the Kb was no more than 126 nM. Molecule `COc1cccc2c1c(NS(=O)(=O)c1ccc(Cl)s1)nn2Cc1cccc(OCCN(C)C)c1` [Example 74, 5-Chloro-N-[1-[(3-{[2-(dimethylamino)ethyl]oxy}phenyl)methyl]-4-(methyloxy)-1H-indazol-3-yl]-2-thiophenesulfonamide] has a Kb of no more than 126 nM. With `COc1cccc2c1c(NS(=O)(=O)c1ccc(Cl)s1)nn2Cc1ccc(OCCN(C)C)cc1` [Example 75, 5-Chloro-N-[1-[(4-{[2-(dimethylamino)ethyl]oxy}phenyl)methyl]-4-(methyloxy)-1H-indazol-3-yl]-2-thiophenesulfonamide] the Kb was no more than 126 nM. `COc1cc(Cn2nc(NS(=O)(=O)c3ccc(Cl)s3)c3c(OC)cccc32)ccc1OCCN(C)C` [Example 76, 5-Chloro-N-[1-{[4-{[2-(dimethylamino)ethyl]oxy}-3-(methyloxy)phenyl]methyl}-4-(methyloxy)-1H-indazol-3-yl]-2-thiophenesulfonamide] showed a Kb of no more than 126 nM. In the case of `COc1cccc2c1c(NS(=O)(=O)c1ccc(Cl)s1)nn2Cc1cccc(S(N)(=O)=O)c1` [Example 77, N-[1-{[3-(aminosulfonyl)phenyl]methyl}-4-(methyloxy)-1H-indazol-3-yl]-5-chloro-2-thiophenesulfonamide], the Kb is reported as no more than 126 nM. For `COc1cccc2c1c(NS(=O)(=O)c1ccc(Cl)s1)nn2Cc1cccc(CNC(=O)CCN)c1` [Example 78, N^1-[(3-{[3-{[(5-Chloro-2-thienyl)sulfonyl]amino}-4-(methyloxy)-1H-indazol-1-yl]methyl}phenyl)methyl]-β-alaninamide trifluoroacetate], the Kb was no more than 126 nM. In the case of `COc1cccc2c1c(NS(=O)(=O)c1ccc(Cl)s1)nn2Cc1cccc(CNC(=O)[C@@H](N)CCC(N)=O)c1` [Example 79, N^1-[(3-{[3-{[(5-Chloro-2-thienyl)sulfonyl]amino}-4-(methyloxy)-1H-indazol-1-yl]methyl}phenyl)methyl]-L-glutamamide formate salt], the Kb is reported as no more than 126 nM. `COc1cccc2c1c(NS(=O)(=O)c1ccc(Cl)s1)nn2Cc1cccc(CNC(=O)C2(N)CCC2)c1` [Example 83, 1-Amino-N-[(3-{[3-{[(5-chloro-2-thienyl)sulfonyl]amino}-4-(methyloxy)-1H-indazol-1-yl]methyl}phenyl)methyl]cyclobutanecarboxamide trifluoroacetate] gave a Kb of no more than 126 nM. In the case of `COc1cccc2c1c(NS(=O)(=O)c1ccc(Cl)s1)nn2Cc1cccc(CNC(=O)C2(N)CC2)c1` [Example 84, 1-Amino-N-[(3-{[3-{[(5-chloro-2-thienyl)sulfonyl]amino}-4-(methyloxy)-1H-indazol-1-yl]methyl}phenyl)methyl]cyclopropanecarboxamide trifluoroacetate], the Kb is reported as no more than 126 nM. `COc1cccc2c1c(NS(=O)(=O)c1ccc(Cl)s1)nn2Cc1cccc(CNC(=O)CN(C)C)c1` [Example 86, N^1-[(3-{[3-{[(5-Chloro-2-thienyl)sulfonyl]amino}-4-(methyloxy)-1H-indazol-1-yl]methyl}phenyl)methyl]-N^2,N^2-dimethylglycinamide trifluoroacetate] gave a Kb of no more than 126 nM.
